From patent US20210024542A1 (Torcept Therapeutics, Inc., priority 2018, published 2021)
Several values for one entry are separate records, joined by “and”; a condition that tells them apart may be missing. Equal values may be shown once.

Tests used:
[1] = Day 30, 10 mg/kg IP QD
Text: (§6) Tumor growth was monitored daily. […] Significance was set at p≤0.05.

[2] = tested on: U2OS; experiment: OncoPanel cell proliferation assay, U2OS; format: cell-based, human
Procedure: (§1) Cells were seeded into 384-well plates and incubated in a humidified atmosphere of 5% CO2 at 37° C. Compounds were added the day following cell seeding. At the same time, a time zero untreated cell plate was generated. After a 3-day incubation period, cells were fixed and stained to allow fluorescence imaging of nuclei. Compounds (1 mM stock solutions) were serially diluted in half-log steps from the highest test concentration ([…]), and assayed over 10 concentrations with a maximum assay concentration of 0.1% DMSO. Automated fluorescence microscopy was carried out using a Molecular Devices ImageXpress Micro XL high-content imager, and images were collected with a 4× objective. 16-bit TIFF images were acquired and analyzed with MetaXpress 5.1.0.41 software.
(§2) Cell proliferation was measured by the fluorescence intensity of an incorporated nuclear dye. The output is referred to as the relative cell count, where the measured nuclear intensity is transformed to percent of control (POC) using the following formula: […]
(§3) Cellular response parameters were calculated using nonlinear regression to a sigmoidal single-site dose response model:
(§4) Where y is a response measured at concentration x, A and B are the lower and upper limits of the response, C is the concentration at the response midpoint (EC50), and D is the Hill Slope (Ref. 1).
(§5) GI50 is the concentration needed to reduce the observed growth by half (midway between the curve maximum and the time zero value). […] In rare instances, values <0 or >10 may be observed. […] Curve-fitting, calculations, and report generation was performed using a custom data reduction engine and MathIQ based software (AIM).

[3] = tested on: A388; experiment: OncoPanel cell proliferation assay, A388; format: cell-based, human; conditions: for Relative cell count (%) Mean: A388
Procedure: as §1, §2, §3, §4, §5

[4] = Whole blood concentrations in mice after IP dosing (LC-MS/MS); format: in vivo
Procedure: These determinations were made using protein precipitation, liquid chromatography (LC), and mass spectrometry (MS/MS). Ten μl aliquots of whole blood and matrix calibration standards were distributed in a 96-well plate; 10 μl aliquots of blank matrix for matrix blanks and control blanks were included as controls. Ten μl of water was added to each sample followed by vortexing. One hundred sixty […] of internal standard was added to each sample except the matrix blanks; 160 μl 70:30 water:acetonitrile (ACN) was added to matrix blanks. This was followed by a […]. One hundred fifty μl of the resultant supernatant was then transferred to a new 96-well plate and the samples blown to dryness at 35° C. The resultant product was then reconstituted with 90 μl ACN.

[5] = mouse, in vivo, ip, 10 mg/kg
Text: as §6

[6] = tested on: SW579; experiment: OncoPanel cell proliferation assay, SW579; format: cell-based, human; conditions: for Relative cell count (%) Mean: SW579
Procedure: as §1, with “Cells were grown in RPMI 1640, 10% FBS, 2 mM L-alanyl-L-glutamine, 1 mM Na pyruvate, or a special medium. Cells” for “Cells”
as §2, §3, §4
EC50 is the test compound concentration at the curve inflection point or half the effective response (parameter C of the fitted curve solution). GI50 is the concentration needed to reduce the observed growth by half (midway between the curve maximum and the time zero value). “Cell Count Activity Area” is an estimate of the integrated area above the curve (Barretina, et al. The Cancer Cell Line Encyclopedia enables predictive modelling of anticancer drug sensitivity. Nature 483: 603-607). […] In rare instances, values <0 or >10 may be observed. […] Curve-fitting, calculations, and report generation was performed using a custom data reduction engine and MathIQ based software (AIM).

[7] = 2 mg/kg IP QD x 3 days, Day 1, 1.00 hrs
[8] = 2 mg/kg IP QD x 3 days, Day 1, 2.00 hrs
[9] = 2 mg/kg IP QD x 3 days, Day 1, 6.00 hrs
[10] = 2 mg/kg IP QD x 3 days, Day 1, 24.0 hrs
[11] = 2 mg/kg IP QD x 3 days, Day 2, 1.00 hrs
[12] = 2 mg/kg IP QD x 3 days, Day 2, 2.00 hrs
[13] = 2 mg/kg IP QD x 3 days, Day 2, 6.00 hrs
[14] = 2 mg/kg IP QD x 3 days, Day 2, 24.0 hrs
[15] = 2 mg/kg IP QD x 3 days, Day 3, 1.00 hrs
[16] = 2 mg/kg IP QD x 3 days, Day 3, 2.00 hrs
[17] = 2 mg/kg IP QD x 3 days, Day 3, 6.00 hrs
[18] = 2 mg/kg IP QD x 3 days, Day 3, 24.0 hrs
[19] = 10 mg/kg IP QD x 3 days, Day 1, 1.00 hrs
[20] = 10 mg/kg IP QD x 3 days, Day 1, 2.00 hrs
[21] = 10 mg/kg IP QD x 3 days, Day 1, 6.00 hrs
[22] = 10 mg/kg IP QD x 3 days, Day 1, 24.0 hrs
[23] = 10 mg/kg IP QD x 3 days, Day 2, 2.00 hrs
[24] = 10 mg/kg IP QD x 3 days, Day 2, 24.0 hrs

## CO[C@H]1C[C@@H]2CC[C@@H](C)[C@@](O)(O2)C(=O)C(=O)N2CCCC[C@H]2C(=O)O[C@H]([C@H](C)C[C@@H]2C[C@@H]3C[C@H]2C[C@H]3O)CC(=O)[C@H](C)/C=C(\C)[C@@H](O)[C@@H](OC)C(=O)[C@H](C)C[C@H](C)/C=C/C=C/C=C/1C [Formula I, 37R-hydroxynorbornylrapamycin]
[1]
  Percent Survival: 100%
[2]; 1.00E+00 microM
  Relative cell count (%) Mean: 50.8%
[2]; 1.00E−01 microM
  Relative cell count (%) Mean: 48.5%
[2]; 1.00E−02 microM
  Relative cell count (%) Mean: 51.4%
[2]; 1.00E−03 microM
  Relative cell count (%) Mean: 69.9%
[2]; 1.01E−04 microM
  Relative cell count (%) Mean: 86.1%
[2]; 3.16E−01 microM
  Relative cell count (%) Mean: 43.2%
[2]; 3.17E−02 microM
  Relative cell count (%) Mean: 47.8%
[2]; 3.17E−03 microM
  Relative cell count (%) Mean: 62.6%
[2]; 3.18E−04 microM
  Relative cell count (%) Mean: 75.4%
[2]; 3.18E−05 microM
  Relative cell count (%) Mean: 95.3%
[2]; Homo sapiens, 72 h, 3-day incubation, read-out: Cell Count EC50
  EC50: 0.395 nM
[2]; Homo sapiens, 72 h, 3-day incubation, read-out: Cell Count GI50
  GI50: 2.76 nM
[2]; Homo sapiens, 72 h, 3-day incubation, read-out: Cell Count IC50
  IC50: 12.1 nM
[2]; scale 0-10
  Cell Count Activity Area: 4.05
[3]; A388, scale 0-10
  Cell Count Activity Area: 3.22
[3]; 1.00E+00 microM
  Relative cell count (%) Mean: 53.8%
[3]; 1.00E−01 microM
  Relative cell count (%) Mean: 62.3%
[3]; 1.00E−02 microM
  Relative cell count (%) Mean: 63.3%
[3]; 1.00E−03 microM
  Relative cell count (%) Mean: 69.1%
[3]; 1.01E−04 microM
  Relative cell count (%) Mean: 77.9%
[3]; 3.16E−01 microM
  Relative cell count (%) Mean: 59.0%
[3]; 3.17E−02 microM
  Relative cell count (%) Mean: 59.6%
[3]; 3.17E−03 microM
  Relative cell count (%) Mean: 67.1%
[3]; 3.18E−04 microM
  Relative cell count (%) Mean: 76.3%
[3]; 3.18E−05 microM
  Relative cell count (%) Mean: 89.9%
[3]; Homo sapiens, 72 h, A388, 3-day incubation, read-out: Cell Count EC50
  EC50: 0.19 nM
[3]; Homo sapiens, 72 h, A388, 3-day incubation, read-out: Cell Count GI50
  GI50: 50.7 nM
[3]; Homo sapiens, 72 h, A388, 3-day incubation, read-out: Cell Count IC50
  IC50: > 1000 nM
[4]; [7]
  Concentration in Mouse Whole Blood, Mean: 529 ng/mL
  Concentration in Mouse Whole Blood, individual animals 1-3: 519 ng/mL and 530 ng/mL and 537 ng/mL
[4]; [8]
  Concentration in Mouse Whole Blood, Mean: 431 ng/mL
  Concentration in Mouse Whole Blood, individual animals 1-3: 668 ng/mL and 392 ng/mL and 233 ng/mL
[4]; [9]
  Concentration in Mouse Whole Blood, Mean: 486 ng/mL
  Concentration in Mouse Whole Blood, individual animals 1-3: 468 ng/mL and 646 ng/mL and 344 ng/mL
[4]; [10]
  Concentration in Mouse Whole Blood, Mean: 36.6 ng/mL
  Concentration in Mouse Whole Blood, individual animals 1-3: 35.8 ng/mL and 48.0 ng/mL and 26.0 ng/mL
[4]; [11]
  Concentration in Mouse Whole Blood, Mean: 569 ng/mL
  Concentration in Mouse Whole Blood, individual animals 1-3: 682 ng/mL and 670 ng/mL and 354 ng/mL
[4]; [12]
  Concentration in Mouse Whole Blood, Mean: 814 ng/mL
  Concentration in Mouse Whole Blood, individual animals 1-3: 746 ng/mL and 841 ng/mL and 854 ng/mL
[4]; [13]
  Concentration in Mouse Whole Blood, Mean: 552 ng/mL
  Concentration in Mouse Whole Blood, individual animals 1-3: 537 ng/mL and 803 ng/mL and 315 ng/mL
[4]; [14]
  Concentration in Mouse Whole Blood, Mean: 47.8 ng/mL
  Concentration in Mouse Whole Blood, individual animals 1-3: 26.8 ng/mL and 76.5 ng/mL and 40.1 ng/mL
[4]; [15]
  Concentration in Mouse Whole Blood, Mean: 946 ng/mL
  Concentration in Mouse Whole Blood, individual animals 1-3: 968 ng/mL and 885 ng/mL and 986 ng/mL
[4]; [16]
  Concentration in Mouse Whole Blood, Mean: 583 ng/mL
  Concentration in Mouse Whole Blood, individual animals 1-3: 760 ng/mL and 707 ng/mL and 282 ng/mL
[4]; [17]
  Concentration in Mouse Whole Blood, Mean: 630 ng/mL
  Concentration in Mouse Whole Blood, individual animals 1-3: 560 ng/mL and 860 ng/mL and 469 ng/mL
[4]; [18]
  Concentration in Mouse Whole Blood, Mean: 62.5 ng/mL
  Concentration in Mouse Whole Blood, individual animals 1-3: 45.7 ng/mL and 92.2 ng/mL and 49.7 ng/mL
[4]; 2 mg/kg or 10 mg/kg IP QD for three days
  Concentrations in whole blood over time (in words): sufficient concentrations in whole blood over time
[4]; [19]
  Concentration in Mouse Whole Blood, Mean: 778 ng/mL
  Concentration in Mouse Whole Blood, individual animals 4-6: 744 ng/mL and 736 ng/mL and 853 ng/mL
[4]; [20]
  Concentration in Mouse Whole Blood, Mean: 2340 ng/mL
  Concentration in Mouse Whole Blood, individual animals 4-6: 2390 ng/mL and 2040 ng/mL and 2590 ng/mL
[4]; [21]
  Concentration in Mouse Whole Blood, Mean: 1726 ng/mL
  Concentration in Mouse Whole Blood, individual animals 4-6: 1970 ng/mL and 2300 ng/mL and 908 ng/mL
[4]; [22]
  Concentration in Mouse Whole Blood, Mean: 273 ng/mL
  Concentration in Mouse Whole Blood, individual animals 4-6: 357 ng/mL and 320 ng/mL and 141 ng/mL
[4]; 10 mg/kg IP QD x 3 days, Day 2, 1.00 hrs
  Concentration in Mouse Whole Blood, individual animals 4-6: AQL (Original value above quantitation limit (1000 ng/mL)) and 3130 ng/mL and 739 ng/mL
[4]; 10 mg/kg IP QD x 3 days, Day 2, 1.00 hrs, one animal AQL
  Concentration in Mouse Whole Blood, Mean: 1935 ng/mL
[4]; [23]
  Concentration in Mouse Whole Blood, Mean: 2820 ng/mL
  Concentration in Mouse Whole Blood, individual animals 4-6: 3060 ng/mL and 2660 ng/mL and 2740 ng/mL
[4]; 10 mg/kg IP QD x 3 days, Day 2, 6.00 hrs
  Concentration in Mouse Whole Blood, individual animals 4-6: AQL (Original value above quantitation limit (1000 ng/mL)) (2×) and 811 ng/mL
[4]; 10 mg/kg IP QD x 3 days, Day 2, 6.00 hrs, two animals AQL
  Concentration in Mouse Whole Blood, Mean: 811 ng/mL
[4]; [24]
  Concentration in Mouse Whole Blood, Mean: 335 ng/mL
  Concentration in Mouse Whole Blood, individual animals 4-6: 335 ng/mL and 472 ng/mL and 199 ng/mL
[4]; 10 mg/kg IP QD x 3 days, Day 3, 1.00 hrs
  Concentration in Mouse Whole Blood, individual animals 4-6: 3490 ng/mL and 3220 ng/mL
[4]; 10 mg/kg IP QD x 3 days, Day 3, 2.00 hrs
  Concentration in Mouse Whole Blood, individual animals 4-6: 2530 ng/mL and 2680 ng/mL and 482 ng/mL
[4]; 10 mg/kg IP QD x 3 days, Day 3, 6.00 hrs
  Concentration in Mouse Whole Blood, individual animals 4-6: 966 ng/mL and 2410 ng/mL and 773 ng/mL
[4]; 10 mg/kg IP QD x 3 days, Day 3, 24.0 hrs
  Concentration in Mouse Whole Blood, individual animals 4-6: 548 ng/mL and 276 ng/mL
[5]
  Body Wt. % Δ from Baseline, Mean: 14.24%
  Body Wt. % Δ from Baseline, Median: 14.91%
[6]; Homo sapiens, 72 h, SW579, 3-day incubation, read-out: Cell Count EC50
  EC50: 0.0616 nM
[6]; Homo sapiens, 72 h, SW579, 3-day incubation, read-out: Cell Count GI50
  GI50: 0.152 nM
[6]; Homo sapiens, 72 h, SW579, 3-day incubation, read-out: Cell Count IC50
  IC50: 0.367 nM
[6]; SW579, scale 0-10
  Cell Count Activity Area: 5.31
[6]; 1.00E+00 microM
  Relative cell count (%) Mean: 35.3%
[6]; 1.00E−01 microM
  Relative cell count (%) Mean: 35.8%
[6]; 1.00E−02 microM
  Relative cell count (%) Mean: 42.8%
[6]; 1.00E−03 microM
  Relative cell count (%) Mean: 44.2%
[6]; 1.01E−04 microM
  Relative cell count (%) Mean: 63.2%
[6]; 3.16E−01 microM
  Relative cell count (%) Mean: 37.9%
[6]; 3.17E−02 microM
  Relative cell count (%) Mean: 38.4%
[6]; 3.17E−03 microM
  Relative cell count (%) Mean: 44.6%
[6]; 3.18E−04 microM
  Relative cell count (%) Mean: 48.4%
[6]; 3.18E−05 microM
  Relative cell count (%) Mean: 78.0%
